For this assay, the target named is T1, IRAK4 (Homo sapiens, UniProt Q9NWZ3).
T1 construct: purchased CARNA Bioscience 09-145
T1 sequence (Q9NWZ3 1-460): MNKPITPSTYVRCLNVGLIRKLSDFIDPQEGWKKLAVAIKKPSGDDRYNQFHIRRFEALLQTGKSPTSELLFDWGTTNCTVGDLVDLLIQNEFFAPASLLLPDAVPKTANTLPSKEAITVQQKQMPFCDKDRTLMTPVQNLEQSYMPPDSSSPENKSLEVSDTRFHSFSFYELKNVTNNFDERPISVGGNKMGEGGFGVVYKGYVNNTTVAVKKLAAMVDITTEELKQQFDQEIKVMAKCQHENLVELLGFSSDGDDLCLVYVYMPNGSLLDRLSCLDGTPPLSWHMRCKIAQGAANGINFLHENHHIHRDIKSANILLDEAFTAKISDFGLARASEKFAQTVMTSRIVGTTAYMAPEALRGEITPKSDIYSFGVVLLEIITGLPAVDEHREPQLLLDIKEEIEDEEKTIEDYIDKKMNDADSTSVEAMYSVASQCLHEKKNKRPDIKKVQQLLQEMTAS
Nature of the assay: IRAK-4 activity inhibition assay (Caliper, Peptide 8, 37 μM ATP). It is filed as biochemical. The note with it: 3.5 nM IRAK4, 1.5 μM Peptide 8, 37 μM ATP, 28° C. 40 minutes; read-out: IRAK-4 activity inhibition IC50.

From patent publication US9340554B2, “IRAK inhibitors and uses thereof” (Nimbus Iris, Inc., priority 2011, dated 2016) come the findings set out here.

As a reminder, the IC50 is the midpoint of a concentration-inhibition curve. `c1nc(OCCN2CCNCC2)c2c3c(sc2n1)CCC3` [Compound I-140, 4-(2-(piperazin-1-yl)ethoxy)-6,7-dihydro-5H-cyclopenta[4,5]thieno[2,3-d]pyrimidine]: the IC50 fell in the range of 20 to 50 µM.

As for `CN(CC(=O)N1CCOCC1)[C@H]1CC[C@H](Nc2ncnc3sc4c(c23)CCC4)CC1` [Compound I-130, 2-[methyl[4-([7-thia-9,11-diazatricyclo[6.4.0.0[2,6]]dodeca-1(12),2(6),8,10-tetraen-12-yl]amino)cyclohexyl]amino]-1-(morpholin-4-yl)ethan-1-one], the IC50 is below 5 µM.

`c1ccc(CCCN[C@H]2CC[C@H](Nc3ncnc4sc5c(c34)CCC5)CC2)cc1` [Compound I-119, (1r,4r)-N1-(6,7-dihydro-5H-cyclopenta[4,5]thieno[2,3-d]pyrimidin-4-yl)-N4-(3-phenylpropyl)cyclohexane-1,4-diamine]: the half-inhibitory concentration (IC50) was below 5 µM. With `CC(=O)N[C@H]1CC[C@H](Nc2ncnc3sc4c(c23)CCC4)CC1` [Compound I-11, N-(trans-4-((6,7-dihydro-5H-cyclopenta[4,5]thieno[2,3-d]pyrimidin-4-yl)amino)cyclohexyl)acetamide] the figure was 5 to 20 µM. As for `Cc1sc2ncnc(N3CCC(C(=O)NCCc4nnc5ccccn45)CC3)c2c1C` [Compound I-29], the figure is 5 to 20 µM; as for `CN(CC(=O)Nc1ccccc1)[C@H]1CC[C@H](Nc2ncnc3sc4c(c23)CCC4)CC1` [Compound I-114, 2-[methyl[4-([7-thia-9,11-diazatricyclo[6.4.0.0^[2,6]]dodeca-1(8),2(6),9,11-tetraen-12-yl]amino)cyclohexyl]amino]-N-phenylacetamide], below 5 µM. With `CN(CCc1ccccc1)[C@H]1CC[C@H](Nc2ncnc3sc4c(c23)CCC4)CC1` [Compound I-168, 1-N-methyl-1-N-(2-phenylethyl)-4-N-[7-thia-9,11-diazatricyclo[6.4.0.0^[2,6]]dodeca-1(8),2(6),9,11-tetraen-12-yl]cyclohexane-1,4-diamine] the figure was below 5 µM.

For `CN(CCC(N)=O)[C@H]1CC[C@H](Nc2ncnc3sc4c(c23)CCC4)CC1` [Compound I-109, 3-[methyl[4-([7-thia-9,11-diazatricyclo[6.4.0.0^[2,6]]dodeca-1(8),2(6),9,11-tetraen-12-yl]amino)cyclohexyl]amino]propanamide], the IC50 was below 5 µM. With `CCC1CCc2c(sc3ncnc(N4CCC(C(N)=O)CC4)c23)C1` (centres unmarked) [Compound I-17] the figure was 5 to 20 µM. As for `CN1CCC(COc2ncnc3sc4c(c23)CCC4)CC1` [Compound I-64], the IC50 fell in the range of 20 to 50 µM. As for `CN(Cc1c[nH]c2ccccc12)[C@H]1CC[C@H](Nc2ncnc3sc4c(c23)CCC4)CC1` [Compound I-110], the figure is below 5 µM; as for `CN[C@H]1CC[C@H](Oc2ncnc3sc4c(c23)CCC4)CC1` [Compound I-66, trans-4-((6,7-dihydro-5H-cyclopenta[4,5]thieno[2,3-d]pyrimidin-4-yl)oxy)-N-methylcyclohexanamine], below 5 µM.

Consider `CCN(Cc1ccccc1)[C@H]1CC[C@H](Nc2ncnc3sc4c(c23)CCC4)CC1` [Compound I-120, 1-N-benzyl-1-N-ethyl-4-N-[7-thia-9,11-diazatricyclo[6.4.0.0[2,6]]dodeca-1(8),2(6),9,11-tetraen-12-yl]cyclohexane-1,4-diamine], for which the IC50 was below 5 µM. For the compound `CCC1CCc2c(sc3ncnc(NC4CCN(Cc5ccccc5)CC4)c23)C1` (centres unmarked) [Compound I-20], the IC50 lay within 20 to 50 µM.

Turning to `CN(C(=O)Cc1cccc(Cl)c1)[C@H]1CC[C@H](Nc2ncnc3sc4c(c23)CCC4)CC1` [Compound I-102, 2-(3-chlorophenyl)-N-methyl-N-[4-([7-thia-9,11-diazatricyclo[6.4.0.0^[2,6]]dodeca-1(8),2(6),9,11-tetraen-12-yl]amino)cyclohexyl]acetamide], the IC50 fell in the range of 20 to 50 µM. As for `CC1(C)CCc2sc3ncnc(N[C@H]4CC[C@H](N)CC4)c3c2C1` [Compound I-38, trans-N^1-(6,6-dimethyl-5,6,7,8-tetrahydrobenzo[4,5]thieno[2,3-d]pyrimidin-4-yl)cyclohexane-1,4-diamine], the figure is below 5 µM; as for `CN(Cc1ccc(C(N)=O)cc1)[C@H]1CC[C@H](Nc2ncnc3sc4c(c23)CCC4)CC1` [Compound I-164, 4-([methyl[4-([7-thia-9,11-diazatricyclo[6.4.0.0^[2,6]]dodeca-1(8),2(6),9,11-tetraen-12-yl]amino)cyclohexyl]amino]methyl)benzamide], below 5 µM. As for `CN[C@H]1CC[C@H](Nc2ncnc3sc4c(c23)CCCC4)CC1` [Compound I-53, trans-N^1-methyl-N4-(5,6,7,8-tetrahydrobenzo[4,5]thieno[2,3-d]pyrimidin-4-yl)cyclohexane-1,4-diamine], the figure is below 5 µM. As for `Cc1sc2ncnc(N[C@H]3CC[C@H](O)CC3)c2c1C` [Compound I-19, trans-4-((5,6-dimethylthieno[2,3-d]pyrimidin-4-yl)amino)cyclohexanol], the figure is 5 to 20 µM; as for `CN(CC(=O)NCc1ccccc1)[C@H]1CC[C@H](Nc2ncnc3sc4c(c23)CCC4)CC1` [Compound I-123, N-benzyl-2-(((1r,4r)-4-((6,7-dihydro-5H-cyclopenta[4,5]thieno[2,3-d]pyrimidin-4-yl)amino)cyclohexyl)(methyl)amino)acetamide], below 5 µM; as for `O=C(O)CN[C@H]1CC[C@H](Nc2ncnc3sc4c(c23)CCC4)CC1` [Compound I-65, 2-((trans-4-((6,7-dihydro-5H-cyclopenta[4,5]thieno[2,3-d]pyrimidin-4-yl)amino)cyclohexyl)amino)acetic acid], 5 to 20 µM. With `CCC1CCc2c(sc3ncnc(N4CCN(C)CC4)c23)C1` (centres unmarked) [Compound I-16], the half-inhibitory concentration (IC50) was 5 to 20 µM.

Regarding `NC(=O)C1CCN(c2ncnc3sc4c(c23)CCCC4)CC1` [Compound I-1], the concentration for half-maximal inhibition (IC50) was in the range of 5 to 20 µM. With `Cc1sc2ncnc(N3CCC(C(=O)NCc4ccc(S(N)(=O)=O)cc4)CC3)c2c1C` [Compound I-25] the figure was 5 to 20 µM; with `CNC1CCCC(Oc2ncnc3sc4c(c23)CCC4)CC1` (centres unmarked) [Compound I-113, N-methyl-4-[7-thia-9,11-diazatricyclo[6.4.0.0^[2,6]]dodeca-1(12),2(6),8,10-tetraen-12-yloxy]cycloheptan-1-amine], 5 to 20 µM; with `NC(=O)C1CCN(c2ncnc3sc4c(c23)CCCC4)CC1` [Compound I-2], 20 to 50 µM.

With `c1ccc(CCN[C@H]2CC[C@H](Nc3ncnc4sc5c(c34)CCC5)CC2)cc1` [Compound I-115, 1-N-(2-phenylethyl)-4-N-[7-thia-9,11-diazatricyclo[6.4.0.0^[2,6]]dodeca-1(12),2(6),8,10-tetraen-12-yl]cyclohexane-1,4-diamine], the IC50 is below 5 µM. With `N[C@H]1CC[C@H](Nc2ncnc3sc4c(c23)CCCC4)CC1` [Compound I-49, trans-N^1-(5,6,7,8-tetrahydrobenzo[4,5]thieno[2,3-d]pyrimidin-4-yl)cyclohexane-1,4-diamine], the IC50 was below 5 µM. `COCCN(C)[C@H]1CC[C@H](Nc2ncnc3sc4c(c23)CCC4)CC1` [Compound I-169, 1-N-(2-methoxyethyl)-1-N-methyl-4-N-[7-thia-9,11-diazatricyclo[6.4.0.0^[2,6]]dodeca-1(8),2(6),9,11-tetraen-12-yl]cyclohexane-1,4-diamine]: the IC50 was below 5 µM. With `CC1CCc2sc3ncnc(N4CCC(C(N)=O)CC4)c3c2C1` (centres unmarked) [Compound I-36] the figure was 5 to 20 µM; with `Cc1sc2ncnc(N3CCC(C(=O)Nc4cc(Cl)ccc4Cl)CC3)c2c1C` [Compound I-32], 5 to 20 µM. As for `CN(Cc1cccc(C(=O)O)c1)[C@H]1CC[C@H](Nc2ncnc3sc4c(c23)CCC4)CC1` [Compound I-167, 3-([methyl[4-([7-thia-9,11-diazatricyclo[6.4.0.0^[2,6]]dodeca-1(8),2(6),9,11-tetraen-12-yl]amino)cyclohexyl]amino]methyl)benzoic acid], the figure is below 5 µM.

With `CN(C)[C@H]1CC[C@H](COc2ncnc3sc4c(c23)CCC4)CC1` [Compound I-148, (1r,4r)-4-(((6,7-dihydro-5H-cyclopenta[4,5]thieno[2,3-d]pyrimidin-4-yl)oxy)methyl)-N,N-dimethylcyclohexanamine], the IC50 is 20 to 50 µM. For `CC1CCc2c(sc3ncnc(N4CCN(S(=O)(=O)c5ccc(C(C)(C)C)cc5)CC4)c23)C1` (centres unmarked) [Compound I-23], the IC50 was in the range of 20 to 50 µM. With `CN(CCc1ccccc1)[C@H]1CC[C@H](Oc2ncnc3sc4c(c23)CCC4)CC1` [Compound I-121, N-methyl-N-(2-phenylethyl)-4-[7-thia-9,11-diazatricyclo[6.4.0.0[2,6]]dodeca-1(8),2(6),9,11-tetraen-12-yloxy]cyclohexan-1-amine] the figure was below 5 µM; with `C[C@@H](Nc1ncnc2sc3c(c12)CCC3)C(=O)O` [Compound I-153], above 50 µM.

As to `CN(Cc1cccnc1)[C@H]1CC[C@H](Nc2ncnc3sc4c(c23)CCC4)CC1` [Compound I-163, 1-N-methyl-1-N-(pyridin-3-ylmethyl)-4-N-[7-thia-9,11-diazatricyclo[6.4.0.0^[2,6]]dodeca-1(12),2(6),8,10-tetraen-12-yl]cyclohexane-1,4-diamine], the IC50 is below 5 µM. With `O[C@H]1CCC[C@H](Nc2ncnc3sc4c(c23)CCC4)C1` (relative stereo) [Compound I-22, trans-3-((6,7-dihydro-5H-cyclopenta[4,5]thieno[2,3-d]pyrimidin-4-yl)amino)cyclohexanol] the figure was 5 to 20 µM.
